How the values were obtained:
RORγt-GAL4 = target: T1, RORγt-GAL4 (Homo sapiens, UniProt P51449); test: Chimeric RORγt-GAL4 luciferase reporter assay in HEK293T cells; format: cell-based; conditions: mean±s.d.
T1 construct: expressed in transfected cells; host or cells: HEK293T
Experimental: This vector, along with the GAL4 UAS-luciferase reporter vector pGL4.31 (Promega), was used to transfect HEK293T cells. […] Following transfection, cells were transferred to one T75 flask and incubated overnight at 37 °C and 5% CO2. […] Cells were collected and resuspended at 0.8 × 10^6 cells per ml in DMEM high-glucose media with 10% FBS. To each well of the plate was added 25 μl of cell suspension and the cells incubated overnight at 37 °C and 5% CO2. After 20–22 h, the plates were brought to room temperature and 25 μl of Steady-Glo luciferase reagent (Promega) was added to each well. The luminescent signal was measured on an Envision plate reader.

RORγt-LBD [1] = target: T2, RORγt-LBD (Homo sapiens, UniProt P51449); test: RORγt-LBD SRC-1 cofactor FRET assay; format: biochemical
T2 construct: leader […]; made in house; host or cells: BL21(DE3) E. coli
T2 sequence (P51449 259-518): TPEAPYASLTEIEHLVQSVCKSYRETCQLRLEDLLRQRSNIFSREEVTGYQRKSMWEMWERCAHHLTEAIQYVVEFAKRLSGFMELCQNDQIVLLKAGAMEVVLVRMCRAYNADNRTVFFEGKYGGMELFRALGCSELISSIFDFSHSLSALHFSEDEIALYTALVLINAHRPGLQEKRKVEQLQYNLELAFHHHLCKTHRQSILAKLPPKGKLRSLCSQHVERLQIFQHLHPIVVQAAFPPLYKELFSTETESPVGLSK
Experimental: The potency of small-molecule RORγt ligands was then assessed by monitoring their effect on the association of a LXXLL-motif-containing SRC-1 peptide. Compound (10 mM dimethylsulphoxide (DMSO) stock) was serially diluted in threefold steps using an Agilent Bravo liquid handler. […] Compounds were allowed to incubate with receptor for 15 min and then 5 μl of peptide in detection buffer or detection buffer alone were added. Detection buffer (5 × ) consists of 50 mM Tris-HCL pH 7.0, 50 mM potassium chloride, 1 mM EDTA, 0.1% delipidated bovine serum albumin, 1 mM DTT and 20 nM streptavidin-APC (PerkinElmer). […] The plate was then incubated overnight at 4 °C. The following morning the plate was warmed to room temperature and read using an Envision plate reader (PerkinElmer). […] The per cent activity of each dilution was determined as the ratio of background corrected signal to the background corrected signal of wells receiving only DMSO. IC50 values were determined by fitting per cent activity data to a four-parameter logistic dose–response equation in GraphPad Prism (GraphPad Software).

RORγt-LBD [2] = target: T2, RORγt-LBD; test: RORγt-LBD AlexaFluor-647-labelled MRL-871 competitive binding assay; conditions: 100 nM probe; mean±s.d.; read-out: MRL-871 AlexaFluor Probe Competition IC50
Experimental: The plate was then incubated for 15 min at room temperature. […] TR-FRET intensity in the presence of RORγt was corrected for background and the KD determined using the One-site specific binding equation in Graph Pad Prism. […] IC50 values were determined by fitting per cent activity data to a four-parameter logistic dose–response equation in GraphPad Prism.

[3] = test system: IL-17 production in human PBMCs; test: PBMC Th17 polarization and IL-17 production assay; format: cell-based; conditions: 96 h, 4 days, mean±s.d., read-out: hPBMC IL17A IC50
Experimental: Test compounds were prepared as 10 mM stocks in DMSO and serially diluted 1:3 to provide an eight-concentration titration. […] Stimulatory cytokines were added to final concentrations of 25 ng ml^−1 IL-1B, 10 ng ml^−1 IL-23, 0.5 ng ml^−1 IL-2 and 10 ng ml^−1 IL-6 (all cytokines from R&D Systems). In addition, T-Activator CD3/28 Dynabeads (Invitrogen) were added to a concentration of 100,000 beads per ml. The stimulated cells were immediately dispensed into the assay plate containing serially diluted compound at a volume of 200 μl cells per well. Cell plates were then incubated at 37 °C and 5% CO2 for 4 days. Culture media (100 μl) was collected from each well and IL-17 expression was measured by enzyme-linked immunosorbent assay (R&D Systems) according to the manufacturer's instructions. Cell viability was assessed by the addition of 100 μl of CellTiter-Glo (Promega) to each well of the cell assay plate followed by luminescence detection on an Envision plate reader (PerkinElmer).

T1 sequence (P51449 97-518): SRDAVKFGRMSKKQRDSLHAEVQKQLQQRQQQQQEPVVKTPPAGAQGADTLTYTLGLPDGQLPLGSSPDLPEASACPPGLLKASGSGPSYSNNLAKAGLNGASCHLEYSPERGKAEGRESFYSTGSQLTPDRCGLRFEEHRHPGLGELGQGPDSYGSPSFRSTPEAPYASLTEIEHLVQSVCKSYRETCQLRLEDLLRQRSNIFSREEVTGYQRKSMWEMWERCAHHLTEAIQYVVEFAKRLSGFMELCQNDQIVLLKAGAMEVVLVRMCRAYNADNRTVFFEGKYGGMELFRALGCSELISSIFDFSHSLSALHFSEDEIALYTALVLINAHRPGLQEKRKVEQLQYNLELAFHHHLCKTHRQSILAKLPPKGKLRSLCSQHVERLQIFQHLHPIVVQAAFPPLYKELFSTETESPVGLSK

SMILES: CC1(C(=O)O)CC=C(c2nn(C(=O)c3c(Cl)cccc3C(F)(F)F)c3cccc(F)c23)CC1 (centres unmarked) [MRL-673]
- IC50 (RORγt-GAL4): 279 ± 137 nM
- weaker potency relative to MRL-367 (RORγt-LBD [1]; in both the biochemical and cellular assays): 10 fold
- IC50 (RORγt-LBD [1]; mean±s.d., read-out: SRC1 Cofactor FRET IC50): 21.8 ± 6.7 nM
- IC50 (RORγt-LBD [2]): 26.4 ± 13 nM
- IC50 [3]: 142 ± 64 nM

From publication PMC4686831, “Identification of an allosteric binding site for RORγt inhibition” (Nature Communications, 2015)
